ChEMBL document CHEMBL1165848, “Discovery of new cholesteryl ester transfer protein inhibitors via ligand-based pharmacophore modeling and QSAR analysis followed by synthetic exploration” (Eur J Med Chem, 2010)

Each molecule was assayed against T1, Cholesteryl ester transfer protein (Oryctolagus cuniculus) (UniProt P22687) (assay: Inhibition of CETP in rabbit serum at 10 uM after 1 hr by fluorescent cholesteryl esters transfer assay). Conditions: not given.
T1 sequence (whole entry): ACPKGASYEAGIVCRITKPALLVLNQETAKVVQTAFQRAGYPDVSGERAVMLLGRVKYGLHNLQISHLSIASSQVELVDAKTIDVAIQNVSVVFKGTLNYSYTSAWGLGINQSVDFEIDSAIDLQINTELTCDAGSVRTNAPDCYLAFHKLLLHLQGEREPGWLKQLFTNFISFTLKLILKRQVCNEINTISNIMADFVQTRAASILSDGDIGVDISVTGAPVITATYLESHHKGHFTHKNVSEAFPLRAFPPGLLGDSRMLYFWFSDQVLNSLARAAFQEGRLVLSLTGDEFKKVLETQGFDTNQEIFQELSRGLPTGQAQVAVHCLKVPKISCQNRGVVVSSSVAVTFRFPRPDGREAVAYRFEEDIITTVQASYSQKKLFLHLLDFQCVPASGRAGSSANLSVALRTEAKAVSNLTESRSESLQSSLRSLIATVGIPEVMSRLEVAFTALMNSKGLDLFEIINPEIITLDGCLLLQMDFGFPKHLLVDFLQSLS
In the case of `COc1ccc(/N=C/c2ccc(N(CCC#N)S(=O)(=O)c3ccccc3)cc2)cc1`, the inhibition is reported as 0%. For `CCN(CC)CCC(=O)c1ccc(Nc2ccnc3cc(Cl)ccc23)cc1`, the inhibition was 20.3%. For `CC(C)(C(=O)O)c1ccc(C(O)CCCN2CCC(C(O)(c3ccccc3)c3ccccc3)CC2)cc1` (stereo not drawn), the inhibition was 0%. For `CCCCOc1ccc(NC(=N)Nc2ccc(Cl)cc2)cc1`, the inhibition was 0%. With `O=C(NCCCOc1ccc(Cl)c(Cl)c1)NCCc1ccc(Cl)c(Cl)c1` the inhibition was 0%. `CCN(CC)Cc1cc(Nc2ccnc3cc(Cl)ccc23)ccc1O` showed an inhibition of 18.6%. With `COc1ccc(C(=O)c2ccc(/N=C/c3cccc(C(F)(F)F)c3)cc2)c(OC)c1` the inhibition was 14.9%. In the case of `O=S(=O)(Nc1ccc(CSc2ccc(Cl)cc2)cc1)c1ccccc1`, the inhibition is reported as 82.5%. With `COc1ccc(C(=O)c2ccc(/N=C/c3ccc(C(F)(F)F)cc3)cc2)c(OC)c1` the inhibition was 15.4%. For `CCCNCC(O)COc1ccccc1C(=O)CCc1ccccc1` (stereo not drawn), the inhibition was 0%. Work on `Cc1ccc(NC(=O)c2ccc(C(=O)Nc3ccc(C)c(Cl)c3)cc2)cc1Cl` yielded an inhibition of 0%. `CCOc1cc(C2SCC(=O)N2c2ccc(Oc3ccc(Cl)cc3)c(Cl)c2)ccc1O` (stereo not drawn) gave an inhibition of 6.7%. Work on `COc1ccc(/C=N/c2ccc(C(=O)c3ccc(OC)cc3OC)cc2)cc1` yielded an inhibition of 19.5%. For `CCN(CC)c1ccc(Nc2ccc(CC(=O)c3ccccc3)cc2)cc1`, the inhibition was 52.5%. `COc1ccc(/C=N/c2ccc(C(=O)c3ccccc3)cc2)cc1` showed an inhibition of 19.9%. In the case of `Cc1ccc(S(=O)(=O)Nc2cccc3c(NS(=O)(=O)c4ccc(C)cc4)cccc23)cc1`, the inhibition is reported as 0%. With `CCSc1nc2ccc(/N=C\c3ccc(NS(=O)(=O)c4ccccc4)cc3O)cc2s1` the inhibition was 0%. Molecule `OC(COc1c(Cl)cc(Cl)cc1Cl)COc1c(Cl)cc(Cl)cc1Cl` has an inhibition of 0%. Work on `CCOc1ccc(/N=C/c2ccc(O)c(OC)c2)c(O)c1` yielded an inhibition of 25.5%. With `C/C=C/c1ccc2oc(-c3ccc(OC4OC(C)C(O)C(O)C4O)cc3)c(C)c2c1` (stereo not drawn) the inhibition was 9%. `Cc1cc2c(cc1C)NC1=C(O)C(c3c[nH]c4ccc(COc5ccccc5)cc34)OC1=N2` (stereo not drawn) was tested, and the inhibition was 0%. `O=C(c1ccc(-c2ccccc2)cc1)c1cccc(/N=C/c2cccc(C(F)(F)F)c2)c1` was tested, and the inhibition was 33.8%. Work on `COc1ccc(Cl)cc1C(=O)NCCc1ccc(S(=O)(=O)NC(=O)NC2CCCCC2)cc1` [GLYBURIDE] yielded an inhibition of 35%. `CCCCCCCCOC(=O)c1ccc2c(c1)Nc1cc3ccccc3cc1N2` gave an inhibition of 33%. With `CN(CN(C)/N=C\c1ccc(Cl)cc1)/N=C\c1ccc(Cl)cc1` the inhibition was 0%. For `OCc1cc(C(O)CNCCCCCCOCCCCc2ccccc2)ccc1O` (stereo not drawn), the inhibition was 27.4%. For `CC(C)OC(=O)CCC/C=C\C[C@@H]1[C@@H](CC[C@@H](O)CCc2ccccc2)[C@H](O)C[C@@H]1O`, the inhibition was 11.4%. In the case of `CC(C)[C@H](Nc1ccc(C(F)(F)F)cc1Cl)C(=O)OC(C#N)c1cccc(Oc2ccccc2)c1` (stereo partly drawn), the inhibition is reported as 0%. For `CC(C)C[C@H]1C(=O)N2CCC[C@H]2[C@]2(O)O[C@](NC(=O)[C@@H]3C=C4c5cccc6[nH]c(Br)c(c56)C[C@H]4N(C)C3)(C(C)C)C(=O)N12`, the inhibition was 12.3%. With `N=c1[nH]c(=O)n(CCCOc2ccccc2)cc1-c1ccc(Cl)c(Cl)c1` the inhibition was 0%. `COc1ccc(/C=N/c2cccc(C(=O)c3ccc(OC)cc3)c2)cc1` showed an inhibition of 14.8%. In the case of `Cc1cc[n+](CC(=O)CCc2ccc(C(=O)C[n+]3ccc(C)cc3)cc2)cc1`, the inhibition is reported as 6%. `O=c1oc2ccccc2c(O)c1C(CC(O)c1ccc(-c2ccc(Br)cc2)cc1)c1ccccc1` (stereo not drawn) showed an inhibition of 0%. `Clc1ccc2c(NCCCC/N=C/c3ccccc3)cccc2c1` showed an inhibition of 0%. In the case of `O=C(CCCCC(=O)Nc1c(I)cc(I)c(C(=O)O)c1I)Nc1c(I)cc(I)c(C(=O)O)c1I`, the inhibition is reported as 15.9%. `N=c1[nH]c(=O)n(CCCOc2cccc(Cl)c2)cc1-c1ccc(Cl)c(Cl)c1` gave an inhibition of 0%. For `OC1=C2Nc3ccc(Cl)cc3N=C2OC1c1c[nH]c2ccc(COc3ccccc3)cc12` (stereo not drawn), the inhibition was 9.1%. `O=C(c1ccc(/N=C/c2cccc(C(F)(F)F)c2)cc1)c1ccc(-c2ccccc2)cc1` showed an inhibition of 9.8%. `Cc1cc(Cl)c(Cl)cc1NC(=O)c1cccc(C(=O)Nc2cc(Cl)c(Cl)cc2C)c1` showed an inhibition of 0%. In the case of `COc1ccc(CCN2CCC(Nc3nc4ccccc4n3Cc3ccc(F)cc3)CC2)cc1`, the inhibition is reported as 20.8%. `COc1ccc(C(=O)c2ccc(/N=C/c3ccc(C(C)(C)C)cc3)cc2)c(OC)c1` gave an inhibition of 24.9%. `O=C(NC(=O)c1c(F)cccc1F)Nc1ccc(Cl)c(Oc2ncc(C(F)(F)F)cc2Cl)c1` gave an inhibition of 0%. `O=C(Nc1ccc(Cl)cc1C(F)(F)F)Oc1ccc(OCc2ccccc2)cc1` was tested, and the inhibition was 22.1%. With `O=C(c1ccccc1)c1cccc(/N=C/c2ccc(C(F)(F)F)cc2)c1` the inhibition was 26.3%. In the case of `COc1cc(N)c(Cl)cc1C(=O)NC1CCN(CCCOc2ccc(F)cc2)CC1OC` (stereo not drawn), the inhibition is reported as 10.6%. With `CCCCOc1ccc2nccc(N/N=C/c3ccc(OC)c4ccccc34)c2c1` the inhibition was 25.4%. For `C=CCc1cccc(/C=N/c2ccccc2NS(=O)(=O)c2ccc(C)cc2)c1O`, the inhibition was 22.6%. `CC(C)(C)c1ccc(C(O)CCCN2CCC(C(O)(c3ccccc3)c3ccccc3)CC2)cc1` (stereo not drawn) showed an inhibition of 0%. Work on `COc1ccc(OCCCn2cc(-c3ccc(Cl)c(Cl)c3)c(=N)[nH]c2=O)cc1` yielded an inhibition of 0%. `Cc1ccc(Nc2ccc(Nc3ccc(C)cc3)c3c2C(=O)c2cccc(O)c2C3=O)cc1` was tested, and the inhibition was 14%. Work on `COc1cccc(/C=N/c2ccc(C(=O)c3ccc(OC)cc3OC)cc2)c1` yielded an inhibition of 23.7%. `O=C(Nc1ccc2c(c1)CCC2)c1ccc(C(=O)Nc2ccc3c(c2)CCC3)cc1` showed an inhibition of 0%. In the case of `O=C(Nc1ccc(Br)cc1)N1CCN(C(=O)Nc2ccc(Br)cc2)CC1`, the inhibition is reported as 0%. For `CC(C)OC(=O)CCC/C=C\C[C@@H]1[C@@H](/C=C/[C@@H](O)COc2cccc(C(F)(F)F)c2)[C@H](O)C[C@@H]1O`, the inhibition was 0%. With `N=C(Nc1cccc2ccccc12)SCCCSC(=N)Nc1cccc2ccccc12` the inhibition was 0%. `COc1ccc(C(=O)c2cccc(/N=C/c3ccccc3)c2)cc1` was tested, and the inhibition was 12.6%. Molecule `O=C(c1ccccc1)c1ccccc1NCC(O)COc1ccc(Cl)cc1` (stereo not drawn) has an inhibition of 0%. `C[C@]12CC[C@@H]3c4ccc(O)cc4C[C@@H](CCCCCCCCC[S+]([O-])CCCC(F)(F)C(F)(F)F)[C@H]3[C@@H]1CC[C@@H]2O` (stereo partly drawn) showed an inhibition of 5.7%. In the case of `Cc1ccc(Nc2ccc(Nc3ccc(C)cc3)c3c2C(=O)c2cc(Cl)c(Cl)cc2C3=O)cc1`, the inhibition is reported as 20.8%. With `O=C(c1ccccc1)c1cc(Cl)ccc1NCC(O)COc1ccc(Cl)cc1` (stereo not drawn) the inhibition was 8.1%. `COc1ccc2nc3cc(Cl)ccc3c(Nc3ccc(C(O)CCn4cccc4)cc3)c2c1` (stereo not drawn) was tested, and the inhibition was 13.4%. `O=C(COc1cccc(Cl)c1)Nc1cccc(CN2C(=O)c3ccccc3C2=O)c1` showed an inhibition of 0%. `O=C(Nc1ccc(Cl)c(Cl)c1)OCC(Cl)COc1ccc(Cl)cc1` (stereo not drawn) gave an inhibition of 0%.

These molecules were tested against T2, Cholesteryl ester transfer protein (Oryctolagus cuniculus, UniProt P22687) (assay: Inhibition of CETP in rabbit serum after 1 hr by fluorescent cholesteryl esters transfer assay). Conditions: not given.
T2 sequence (P22687 whole entry): T1 sequence (whole entry)
With `CC(C)Oc1cccc(N(Cc2cccc(OC(F)(F)C(F)F)c2)CC(O)C(F)(F)F)c1` (stereo not drawn) the IC50 was 300 nM.

Same assay, conditions: read-out: IC50
`O=S(=O)(Nc1ccc(CSc2ccc(Cl)cc2)cc1)c1ccccc1` was tested, and the IC50 was 1900 nM. `CCN(CC)c1ccc(Nc2ccc(CC(=O)c3ccccc3)cc2)cc1` gave an IC50 of 6500 nM. In the case of `COc1ccc(Cl)cc1C(=O)NCCc1ccc(S(=O)(=O)NC(=O)NC2CCCCC2)cc1` [GLYBURIDE], the IC50 is reported as 239000 nM. With `CCCCCCCCOC(=O)c1ccc2c(c1)Nc1cc3ccccc3cc1N2` the IC50 was 60300 nM. `OC(CN(Cc1cccc(OC(F)(F)C(F)(F)F)c1)c1cccc(Oc2ccc(S)cc2)c1)C(F)(F)F` (stereo not drawn) was tested, and the IC50 was > 50000 nM. `CC(C)(C)Oc1cccc(CN(CC(O)C(F)(F)F)c2cccc(Oc3ccccc3)c2)c1` (stereo not drawn) gave an IC50 of 660 nM. In the case of `OC(CN(Cc1ccccc1)c1cccc(F)c1)C(F)(F)F` (stereo not drawn), the IC50 is reported as > 100000 nM. With `OC(CN(Cc1cccc(OC(F)(F)C(F)F)c1)c1cccc(F)c1)C(F)(F)F` (stereo not drawn) the IC50 was 4500 nM. Work on `OC(CN(Cc1ccc(F)c(-c2ccco2)c1)c1cccc(Oc2ccccc2)c1)C(F)(F)F` (stereo not drawn) yielded an IC50 of 720 nM. `CN(C)c1cccc(Oc2cccc(N(Cc3cccc(OC(F)(F)C(F)F)c3)CC(O)C(F)(F)F)c2)c1` (stereo not drawn) was tested, and the IC50 was 200 nM. Molecule `OC(CN(Cc1ccc(OC(F)(F)F)cc1)c1cccc(F)c1)C(F)(F)F` (stereo not drawn) has an IC50 of 15000 nM. `OC(CN(Cc1cccc(OC(F)(F)C(F)F)c1)c1cccc(Oc2cc(F)cc(F)c2)c1)C(F)(F)F` (stereo not drawn) showed an IC50 of 200 nM. `OC(CN(Cc1cccc(OC(F)(F)C(F)F)c1)c1cccc(OC2CCCCC2)c1)C(F)(F)F` (stereo not drawn) gave an IC50 of 2600 nM. Molecule `OC(CN(Cc1cccc(OC(F)(F)C(F)F)c1)c1cccc(Oc2ccc(Cc3ccccc3)cc2)c1)C(F)(F)F` (stereo not drawn) has an IC50 of 2400 nM.
